# Laboratory results as given in PubChem BioAssay (NCI).
#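 All cell lines were grown in 96-well plates and treated with compound for 48 hours. Here, GI50 denotes the concentration required for 50% inhibition of growth. At the TGI there is no net growth.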
# Tests used:
# Test in all cases: NCI-60 cell line screen, 48 h
# SK-MEL-28 melanoma = tested on: SK-MEL-28 melanoma
# HOP-62 NSCLC = tested on: HOP-62 NSCLC
# HL-60(TB) leukemia = tested on: HL-60(TB) leukemia
# EKVX NSCLC = tested on: EKVX NSCLC
# U251 CNS = tested on: U251 CNS
# HCC-2998 colon = tested on: HCC-2998 colon
# MALME-3M melanoma = tested on: MALME-3M melanoma
Compound,GI50 (SK-MEL-28 melanoma) [µM],TGI (SK-MEL-28 melanoma) [µM],GI50 (HOP-62 NSCLC) [µM],TGI (HOP-62 NSCLC) [µM],GI50 (HL-60(TB) leukemia) [µM],TGI (HL-60(TB) leukemia) [µM],GI50 (EKVX NSCLC) [µM],TGI (EKVX NSCLC) [µM],GI50 (U251 CNS) [µM],TGI (U251 CNS) [µM],GI50 (HCC-2998 colon) [µM],TGI (HCC-2998 colon) [µM],GI50 (MALME-3M melanoma) [µM],TGI (MALME-3M melanoma) [µM]
Nc1nc2cc(CC[C@H]3C[C@@H](n4ccc5c(N)ncnc54)[C@H](O)[C@@H]3O)ccc2cc1Br,12.2,25.4,8.91,24.2,14.1,38.5,4.22,22,13,29.8,11.2,24.4,7.42,21.5
COc1ccc(/C(C#N)=C/c2cc(OC)c(OC)c(OC)c2)cc1,27.4,> 100,34.3,> 100,13.2,56.5,–,–,26.2,> 100,23.1,> 100,7.68,56.7
COC1=CC(c2ccc[nH]2)=N/C1=C\c1[nH]c(C)c(CC(=O)OCc2ccccc2)c1C,–,–,0.374,2.27,0.537,2.44,0.351,2.06,0.319,1.73,–,–,0.578,2.1
COC(=O)c1c2c(c(C)[n+]([O-])c1C)C(=O)C=C(NCc1cccc(Cl)c1)C2=O,0.716,2.09,1.13,2.8,0.287,0.935,0.762,2.15,0.367,1.55,0.329,1.42,0.136,0.309
COc1cc(C(=O)O[C@H](C(=O)NCCN(C)CCNC(=O)[C@@H](OC(=O)c2cc(OC)cc3c(C)cccc23)[C@]2(C)CO2)[C@]2(C)CO2)c2cccc(C)c2c1,0.171,0.512,0.893,7.85,–,–,0.106,1.72,< 0.01,0.0139,< 0.0241,0.771,–,–
CC(C)=CC(=O)N[C@H]1CC[C@]2(C)C3CC[C@]4(C)C(C(C)N(C)C)=CCC4C3CCC2[C@H]1O (stereo not given in full),1.82,3.4,2.61,7.49,3.34,9.11,6.38,23.2,3.89,15.9,5.22,17.8,1.89,4.23
O=c1oc2cc(OC/C(=N/O)c3ccc(F)cc3)ccc2c2ccccc12,20,37.2,18.1,34.2,–,–,20.9,42.5,20.9,45.5,17,30.7,19.6,42.8
CC(C)C(=O)c1c(C(F)(F)F)n([O-])c2cc(F)c(F)cc2[n+]1=O,0.55,3.15,0.0985,0.602,–,–,1.53,3.4,0.2,0.43,0.326,1.37,0.693,2.21
NC(N)=NC(N)=NCCCc1ccco1,23.1,91.3,82.7,196,15.9,48.2,–,–,150,> 500,> 500,> 500,18.7,66.2
Nc1nc(SCc2ccccc2Cl)cc(C(=O)O)n1,–,> 100,–,> 100,–,> 100,–,> 100,–,> 100,–,> 100,–,> 100
CC(=O)O[C@H]1C(=O)[C@@]2(C)[C@H]([C@H](OC(=O)c3ccccc3)[C@]3(O)C[C@H](OC(=O)[C@H](OC(=O)OC[C@H]4COC(C)(C)O4)[C@@H](NC(=O)c4ccccc4)c4ccccc4)C(C)=C1C3(C)C)[C@]1(OC(C)=O)CO[C@@H]1C[C@@H]2O,> 33.3,> 33.3,0.0596,> 33.3,0.0168,> 33.3,0.113,> 33.3,0.0288,> 33.3,0.00983,> 33.3,0.227,> 33.3
O=C(CI)Nc1ccc(O)c2ccccc12,1.78,3.74,2.27,5.14,1.61,4.79,2.52,8.59,1.57,3.11,2.13,4.91,0.547,1.16
Cc1ccc(NC(=O)/C(Cc2cc(=O)oc3cc(O)ccc23)=N\NC(C)(C)C)cc1C,–,> 100,–,–,–,> 100,–,–,–,> 100,–,> 100,–,–
CC(=O)/C=C/C1=C(c2csc3ccccc23)c2ccccc2CC1,16.9,37.1,44.5,> 100,13.6,58.3,30.4,> 100,31.1,> 100,24.3,49.6,21.7,55.4
O=C1C(=O)c2ccccc2C(O)=C1CCCc1ccc(C2CCCCC2)cc1,8.54,27.2,7.2,23,2.94,28.5,3.22,20.9,6.42,> 100,11.6,61.4,3.55,51
C=C1C(=O)O[C@H]2[C@H]1CC/C(COC(=O)CCCc1c[nH]c3ccccc13)=C\CC[C@@]1(C)O[C@@H]21,1.7,3.27,6.54,19.6,1.63,5.01,2.02,5.01,1.95,3.67,1.79,3.46,1.79,3.56
C=C1C(=O)O[C@H]2[C@H]1CC/C(COC(=O)OC/C1=C/CC[C@@]3(C)O[C@H]3[C@H]3OC(=O)[C@@H](CN(C)C)[C@@H]3CC1)=C\CC[C@@]1(C)O[C@@H]21,1.57,4.23,12.2,26.5,0.233,0.845,2.17,9.39,3.3,12.5,2.96,8.2,1.26,3.12
Nc1ccc(COC(O)CN2CCCCC2)cc1[N+](=O)[O-] (stereo not given),–,> 100,–,–,–,> 100,–,–,–,> 100,–,> 100,–,> 100
